Columns and labels:
Test in all cases: relative viability (nuclei count vs DMSO), 5 days (fraction); higher = more cells survive
Afatinib + Bortezomib = compound: CN(C)C/C=C/C(=O)Nc1cc2c(Nc3ccc(F)c(Cl)c3)ncnc2cc1O[C@H]1CCOC1 [Afatinib] + CC(C)C[C@H](NC(=O)[C@H](Cc1ccccc1)NC(=O)c1cnccn1)B(O)O [Bortezomib] (partner 0.002 µM)
How it was run: (§1)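 Each reported value is a median over duplicate plates. It expresses relative viability: treated-well nuclei count divided by vehicle-well nuclei count. Lung cancer cell lines in 1536-well plates were dosed by pin tool a day after seeding, alone with one drug or with a fixed anchor-drug dose plus five library-drug doses (not always all listed) in √10 steps, and nuclei were counted after 5 days.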

Afatinib + Dasatinib = compound: CN(C)C/C=C/C(=O)Nc1cc2c(Nc3ccc(F)c(Cl)c3)ncnc2cc1O[C@H]1CCOC1 [Afatinib] + Cc1nc(Nc2ncc(C(=O)Nc3c(C)cccc3Cl)s2)cc(N2CCN(CCO)CC2)n1 [Dasatinib] (partner 0.075 µM)
How it was run: as §1

Afatinib + Luminespib = compound: CN(C)C/C=C/C(=O)Nc1cc2c(Nc3ccc(F)c(Cl)c3)ncnc2cc1O[C@H]1CCOC1 [Afatinib] + CCNC(=O)c1noc(-c2cc(C(C)C)c(O)cc2O)c1-c1ccc(CN2CCOCC2)cc1 [Luminespib] (partner 0.01 µM)
How it was run: as §1

Afatinib + Palbociclib = compound: CN(C)C/C=C/C(=O)Nc1cc2c(Nc3ccc(F)c(Cl)c3)ncnc2cc1O[C@H]1CCOC1 [Afatinib] + CC(=O)c1c(C)c2cnc(Nc3ccc(N4CCNCC4)cn3)nc2n(C2CCCC2)c1=O [Palbociclib] (partner 0.5 µM)
How it was run: as §1

Cell Line | relative viability (Afatinib + Bortezomib; first compound 0.005 µM) | relative viability (Afatinib + Bortezomib; first compound 0.01581 µM) | relative viability (Afatinib + Bortezomib; first compound 0.05 µM) | relative viability (Afatinib + Bortezomib; first compound 0.1581 µM) | relative viability (Afatinib + Bortezomib; first compound 0.5 µM) | relative viability (Afatinib + Dasatinib; first compound 0.005 µM) | relative viability (Afatinib + Dasatinib; first compound 0.01581 µM) | relative viability (Afatinib + Dasatinib; first compound 0.05 µM) | relative viability (Afatinib + Dasatinib; first compound 0.1581 µM) | relative viability (Afatinib + Dasatinib; first compound 0.5 µM) | relative viability (Afatinib + Luminespib; first compound 0.005 µM) | relative viability (Afatinib + Luminespib; first compound 0.01581 µM) | relative viability (Afatinib + Luminespib; first compound 0.05 µM) | relative viability (Afatinib + Luminespib; first compound 0.1581 µM) | relative viability (Afatinib + Luminespib; first compound 0.5 µM) | relative viability (Afatinib + Palbociclib; first compound 0.005 µM) | relative viability (Afatinib + Palbociclib; first compound 0.01581 µM) | relative viability (Afatinib + Palbociclib; first compound 0.05 µM) | relative viability (Afatinib + Palbociclib; first compound 0.1581 µM) | relative viability (Afatinib + Palbociclib; first compound 0.5 µM)
HARA | 1.02 | 0.763 | 0.683 | 0.836 | 0.754 | 0.179 | 0.182 | 0.217 | 0.178 | 0.209 | 0.719 | 0.327 | 0.425 | 0.334 | 0.458 | 0.188 | 0.242 | 0.204 | 0.189 | 0.197
NCI-H2126 | 1.11 | 1.04 | 1.01 | 0.984 | 0.852 | 0.573 | 0.532 | 0.439 | 0.394 | 0.401 | 0.958 | 0.861 | 0.796 | 0.681 | 0.718 | 0.342 | 0.338 | 0.364 | 0.342 | 0.314
LXF-289 | 1.04 | 0.906 | 0.947 | 0.905 | 0.936 | 0.238 | 0.27 | 0.253 | 0.208 | 0.228 | 0.748 | 0.604 | 0.719 | 0.656 | 0.564 | 0.604 | 0.561 | 0.553 | 0.486 | 0.533
NCI-H460 | 1.34 | 1.1 | 1.09 | 1.1 | 0.997 | 0.531 | 0.527 | 0.469 | 0.467 | 0.535 | 0.0369 | 0.0258 | 0.0533 | 0.0327 | 0.032 | 0.165 | 0.175 | 0.237 | 0.184 | 0.242
NCI-H2009 | 1.09 | 1.01 | 0.991 | 1 | 1.03 | 0.306 | 0.295 | 0.341 | 0.259 | 0.285 | 1.08 | 1.04 | 1.13 | 1.02 | 1.08 | 0.238 | 0.25 | 0.253 | 0.231 | 0.247

Source: the supplement of paper PMC10307832
